Source: patent publication US6410245B1, “Compositions and methods for detecting ligand-dependent nuclear receptor and coactivator interactions” (priority 1998, dated 2002)

System: VP16TRα, Gal4-SRC-1, and UAS-TK-luciferase
Assay: positive two-hybrid system, luciferase reporter, VP16TRα and Gal4-SRC-1
Assay type: cell-based
Settings: CHO cells triple transfected; dose-response curve; FIG. 8
Text: “Receptor” indicates LBD-TRX, with the LBD exemplified by a genereic nuclear receptor (NR) LBD with bound ligand (L), and the TRX domain represented by the VP16 acidic activation domain (VP16). “Coactivator” indicates a CA-TRX, with exemplary CA species being a portion of the SRC-1 protein, a portion of the CBP protein, or isolated LCD sequences from those proteins, the TRX domain is exemplified as the Gal4 DNA binding domain (DBD). “Corepressor” indicates a CR-TRX, with exemplary CR species being the interacting domains (ID1 or ID2) from SMRT or NcoR fused to the TRX domain as exemplified by Gal4 DNA binding domain (DBD). The reporter polynucleotide is exemplified as a UAS-TK-luciferase reporter containing binding sites for Gal4 DBD. CHO cells were triple transfected with these constructs and hormone added.
“Receptor” indicates LBD-TRX, with the LBD exemplified by a genereic nuclear receptor (NR) LBD with bound ligand (L), and the TRX domain represented by the VP16 acidic activation domain (VP16). “Coactivator” indicates a CA-TRX, with exemplary CA species being a portion of the SRC-1 protein, a portion of the CBP protein, or isolated LCD sequences from those proteins, the TRX domain is exemplified as the Gal4 DNA binding domain (DBD). […]

N[C@@H](Cc1cc(I)c(Oc2ccc(O)c(I)c2)c(I)c1)C(=O)O [T3, triiodothyronine]
reporter (luciferase) response: dose-dependent
